The data set has as its target ATP-dependent translocase ABCB1 (Homo sapiens, UniProt P08183). The data set can be described thus: TP_TRANSPORTER: RT-PCR in Caco-2 cells. Type of data set: functional, cell-based.

SMILES strings stand for the structures.

Chain of ATP-dependent translocase ABCB1 (P08183 whole entry): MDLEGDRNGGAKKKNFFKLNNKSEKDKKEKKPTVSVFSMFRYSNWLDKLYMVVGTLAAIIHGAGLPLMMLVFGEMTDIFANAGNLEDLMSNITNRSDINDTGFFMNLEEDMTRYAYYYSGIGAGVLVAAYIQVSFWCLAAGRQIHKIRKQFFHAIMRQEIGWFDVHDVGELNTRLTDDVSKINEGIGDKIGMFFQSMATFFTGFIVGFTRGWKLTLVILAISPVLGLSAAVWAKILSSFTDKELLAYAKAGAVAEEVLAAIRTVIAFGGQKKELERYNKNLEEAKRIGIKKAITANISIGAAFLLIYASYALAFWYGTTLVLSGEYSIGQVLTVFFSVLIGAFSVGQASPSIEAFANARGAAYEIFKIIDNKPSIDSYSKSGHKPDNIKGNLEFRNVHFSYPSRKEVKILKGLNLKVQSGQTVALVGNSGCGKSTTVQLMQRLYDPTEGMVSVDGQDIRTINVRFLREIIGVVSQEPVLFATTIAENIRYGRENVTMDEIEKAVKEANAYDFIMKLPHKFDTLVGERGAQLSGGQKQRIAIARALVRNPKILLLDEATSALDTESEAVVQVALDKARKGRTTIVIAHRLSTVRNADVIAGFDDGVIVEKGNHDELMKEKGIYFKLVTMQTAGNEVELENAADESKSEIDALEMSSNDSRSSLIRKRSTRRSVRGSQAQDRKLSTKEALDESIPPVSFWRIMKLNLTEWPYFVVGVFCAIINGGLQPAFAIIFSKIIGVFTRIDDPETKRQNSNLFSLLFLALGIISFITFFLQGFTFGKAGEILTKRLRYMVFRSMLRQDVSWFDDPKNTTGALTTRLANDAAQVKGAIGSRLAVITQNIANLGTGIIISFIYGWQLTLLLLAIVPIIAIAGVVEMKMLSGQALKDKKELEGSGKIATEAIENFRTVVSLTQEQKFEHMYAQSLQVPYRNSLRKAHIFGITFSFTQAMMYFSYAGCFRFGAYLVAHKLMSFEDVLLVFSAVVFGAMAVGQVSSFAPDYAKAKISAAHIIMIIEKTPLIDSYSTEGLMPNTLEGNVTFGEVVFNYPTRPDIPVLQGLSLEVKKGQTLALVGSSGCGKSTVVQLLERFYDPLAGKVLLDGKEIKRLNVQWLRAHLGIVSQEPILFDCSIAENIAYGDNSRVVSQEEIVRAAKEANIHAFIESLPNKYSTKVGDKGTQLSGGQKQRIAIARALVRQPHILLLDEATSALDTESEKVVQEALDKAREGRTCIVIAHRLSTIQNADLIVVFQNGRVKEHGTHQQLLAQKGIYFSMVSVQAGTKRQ

As to `C[C@H]1O[C@@H](O[C@H]2[C@@H](O)C[C@H](O[C@H]3[C@@H](O)C[C@H](O[C@H]4CC[C@@]5(C)[C@H](CC[C@@H]6[C@@H]5C[C@@H](O)[C@]5(C)[C@@H](C7=CC(=O)OC7)CC[C@]65O)C4)O[C@@H]3C)O[C@@H]2C)C[C@H](O)[C@@H]1O` [DIGOXIN], the Activity result was “inducer [+]”.

Values taken from ChEMBL document CHEMBL2074250, “Digoxin up-regulates MDR1 in human colon carcinoma Caco-2 cells” (Biochem Biophys Res Commun, 2002).
